Experimental findings from US20140350119A1, “OPHTHALMIC COMPOSITION COMPRISING GERANYLGERANYLACETONE” (ROHTO PHARMACEUTICAL CO., LTD., priority 2012, published 2014) are described below.

The subject of assay [1] is rat-derived retinal ganglion cells (RGC). Briefly: Neurite outgrowth inducing effect in culture system of rat-derived retinal ganglion cells. Type of assay: cell-based, Wistar rats. The following applies: all-trans form content 3 μM; 48 hours; FIG. 2, FIG. 3; n=4. From the text: The progress of visual impairment in glaucoma is associated with retinal ganglion cell (RGC) death due to blood flow failure occurring near the optic nerve (Folia Pharmacol. Jpn. 128, 255-258 (2006)). Accordingly, a culture system of rat-derived retinal neurons (Current protocols in Neuroscience 3.22.1-3.22.10, October 2010), which is widely used as one of study tools for optic nerve diseases such as a glaucoma, was used to examine the neurite outgrowth inducing effect of GGA.
Four-day-old Wistar rats (Japan SLC, Inc.) were euthanized by cervical dislocation and the eyeballs were harvested. The harvested eyeballs were immersed in 70% ethanol for 10 seconds and transferred to a Hanks' balanced salt solution containing 100 U/mL penicillin and 100 μg/mL streptomycin. Under a stereoscopic microscope, the corneas, irises, crystalline lenses, and vitreous bodies were removed using scissors for surgery and forceps, and the retinal tissue was harvested. The harvested retinal tissue was transferred to a centrifugation tube containing 5 mL of a basal medium for neuronal cells (Neurobasal, Invitrogen) containing 100 U/mL penicillin, 100 μg/mL streptomycin, a neural cell culture supplement (B27™-Supplement, Invitrogen), 1 μM L-cysteine (Kyowa Hakko Bio) and 15 U/mL papain (Sigma Aldrich) and incubated at 37° C. for 30 minutes. […]

Assay [2] concerns PC12. Briefly: Protective effect against ischemic cell death induced by hypoxia and low glucose (cell viability, Cell Titer-Glo). The following applies: 30 μM, 2 h, then low glucose, zero percent O2, 8 h, FIG. 1, Tukey-Kramer test. Format: cell-based, rat. An excerpt:
The progress of visual impairment in glaucoma is associated with retinal ganglion cell (RGC) death due to blood flow failure occurring near the optic nerve (Folia Pharmacol. Jpn. 128, 255-258 (2006)). With the use of PC12, which is a typical neural cell line established from rat adrenal […] pheochromocytoma and used also as a model cell for the functional evaluation of RGC (J Neurosci Res. 2000 May 15; 60(4): 495-503.), the cytoprotective effect of GGA against ischemic cell death induced by hypoxia and low glucose was evaluated.
Test samples were prepared as follows. The test substances were four types of GGAs that contain the all-trans form and the 5Z-mono-cis form at a weight ratio of 10:0, 8:2, 6:4, and 0:10, respectively. […]
After 8 hours of incubation, 100 μL of an equivalent mixture of a cell viability detection reagent Cell Titer-Glo (Promega) and PBS was added to each well and the luminescence produced by the reaction with ATP in living cells was measured with a luminometer (GloMax; Promega). The cell viability was calculated from the measured luminescence by the following formula and the cytoprotective effect of GGA against […] was examined.
Cell viability (%)=100×[(luminescence of base- or GGA-treated group)/(luminescence of non-treated group)]

Turning to `CC(=O)CC/C=C(\C)CC/C=C(\C)CC/C=C(\C)CCC=C(C)C` [all-trans form, (5E,9E,13E)-6,10,14,18-tetramethyl-5,9,13,17-nonadecatetrae n-2-one], in assay [1], the “Neurite inducing effect (mean length of neurites of RGC) compared with GGA 6:4 and base” value is “significant neurite inducing effect”. The “Cytoprotective effect compared with GGA of weight ratio 6:4” value in assay [2] is reported as “significantly higher cytoprotective effects”.
